Measured values: article PMC10620772, “Design, synthesis, and biological evaluation of new pyrimidine-5-carbonitrile derivatives as novel anti-cancer, dual EGFR^WT/COX-2 inhibitors with docking studies” (RSC Advances, 2023)

What was measured:
Assay in all cases: NCI60 antitumor screening
Type in all cases: cell-based, human
[1] = test system: SF-295
[2] = test system: SNB-75
[3] = test system: U251
[4] = test system: MALME-3M
[5] = test system: M14
[6] = test system: MDA-MB-435
[7] = test system: SK-MEL-2; details: Homo sapiens; 10 μM single dose; SK-MEL-2 (melanoma); read-out: growth inhibition percent (GI%)
[8] = test system: UACC-62
[9] = test system: IGROV1
[10] = test system: OVCAR-3
[11] = test system: OVCAR-4
[12] = test system: OVCAR-5
[13] = test system: 786–0
[14] = test system: SN12C
[15] = test system: UO-31
[16] = test system: PC-3
[17] = test system: DU-145
[18] = test system: HS 578T
[19] = test system: BT-549
[20] = test system: T-47D
[21] = test system: MDA-MB-468
[22] = Homo sapiens, OVCAR-4, five-dose
[23] = Homo sapiens, MDA-MB-468, five-dose

## N#Cc1c(-c2ccc(F)cc2)nc(SCc2ccc(F)cc2)nc1N1CCNCC1 [4f, 2-((4-Fluorobenzyl)thio)-4-(4-fluorophenyl)-6-(piperazin-1-yl) pyrimidine-5-carbonitrile]
[1]; Homo sapiens, SF-295, five-dose, read-out: LC50 (the source's name)
  CC50: 57.5 µM
[1]; Homo sapiens, 10 μM single dose, SF-295 (CNS cancer), read-out: growth inhibition percent (GI%)
  inhibition at 10 µM: > 100%
[1]; five-dose
  TGI: 30.90 µM
[2]; 10 μM one-dose
  GI%: 80.66%
[2]; Homo sapiens, 10 μM single dose, SNB-75 (CNS cancer), read-out: growth inhibition percent (GI%)
  inhibition at 10 µM: 80.7%
[3]; Homo sapiens, U-251, 10 μM single dose, U251 (CNS cancer), read-out: growth inhibition percent (GI%)
  inhibition at 10 µM: > 100%
[3]; Homo sapiens, U-251, five-dose
  GI50: 10.3 µM
[3]; Homo sapiens, U-251, five-dose, read-out: LC50 (the source's name)
  CC50: 59.1 µM
[3]; five-dose
  TGI: 24.70 µM
[4]; Homo sapiens, Malme-3M, five-dose
  GI50: 14.7 µM
[4]; Homo sapiens, Malme-3M, five-dose, read-out: LC50 (the source's name)
  CC50: 54.8 µM
[4]; Homo sapiens, 10 μM single dose, MALME-3M (melanoma), read-out: growth inhibition percent (GI%)
  inhibition at 10 µM: > 100%
[4]; five-dose
  TGI: 28.40 µM
[5]; Homo sapiens, M14, five-dose
  GI50: 13.6 µM
[5]; Homo sapiens, M14, five-dose, read-out: LC50 (the source's name)
  CC50: 52.9 µM
[5]; Homo sapiens, 10 μM single dose, M14 (melanoma), read-out: growth inhibition percent (GI%)
  inhibition at 10 µM: > 100%
[5]; five-dose
  TGI: 26.80 µM
[6]; Homo sapiens, MDA-MB-435, five-dose
  GI50: 16.8 µM
[6]; Homo sapiens, MDA-MB-435, five-dose, read-out: LC50 (the source's name)
  CC50: 58.4 µM
[6]; Homo sapiens, 10 μM single dose, MDA-MB-435 (melanoma), read-out: growth inhibition percent (GI%)
  inhibition at 10 µM: > 100%
[6]; five-dose
  TGI: 31.30 µM
[7]
  inhibition at 10 µM: > 100%
[8]; Homo sapiens, UACC-62, five-dose
  GI50: 15.9 µM
[8]; Homo sapiens, UACC-62, five-dose, read-out: LC50 (the source's name)
  CC50: 56.2 µM
[8]; Homo sapiens, 10 μM single dose, UACC-62 (melanoma), read-out: growth inhibition percent (GI%)
  inhibition at 10 µM: > 100%
[8]; five-dose
  TGI: 29.90 µM
[9]; Homo sapiens, IGROV-1, 10 μM single dose, IGROV1 (ovarian cancer), read-out: growth inhibition percent (GI%)
  inhibition at 10 µM: > 100%
[9]; Homo sapiens, IGROV-1, five-dose
  GI50: 15.6 µM
[9]; Homo sapiens, IGROV-1, five-dose, read-out: LC50 (the source's name)
  CC50: 56.8 µM
[9]; five-dose
  TGI: 29.80 µM
[10]; Homo sapiens, OVCAR-3, five-dose
  GI50: 15.5 µM
[10]; Homo sapiens, OVCAR-3, five-dose, read-out: LC50 (the source's name)
  CC50: 61.2 µM
[10]; Homo sapiens, 10 μM single dose, OVCAR-3 (ovarian cancer), read-out: growth inhibition percent (GI%)
  inhibition at 10 µM: > 100%
[10]; five-dose
  TGI: 30.80 µM
[11]; [22]
  GI50: 16.5 µM
  LC50 (lethal concentration, 50% cell kill): 68.7 µM
[11]; Homo sapiens, 10 μM single dose, OVCAR-4 (ovarian cancer), read-out: growth inhibition percent (GI%)
  inhibition at 10 µM: > 100%
[11]; five-dose
  TGI: 33.60 µM
[12]; 10 μM one-dose
  GI%: 99.16%
[12]; Homo sapiens, OVCAR-5, five-dose
  GI50: 14.5 µM
[12]; Homo sapiens, OVCAR-5, five-dose, read-out: LC50 (the source's name)
  CC50: 53.9 µM
[12]; Homo sapiens, 10 μM single dose, OVCAR-5 (ovarian cancer), read-out: growth inhibition percent (GI%)
  inhibition at 10 µM: 99.2%
[12]; five-dose
  TGI: 28.00 µM
[13]; Homo sapiens, 786-0, five-dose
  GI50: 13.8 µM
  LC50 (concentration killing 50% of tumour cells): 62.6 µM
[13]; Homo sapiens, 10 μM single dose, 786–0 (renal cancer), read-out: growth inhibition percent (GI%)
  inhibition at 10 µM: > 100%
[13]; five-dose
  TGI: 29.30 µM
[14]; Homo sapiens, SN12C, five-dose
  GI50: 15.3 µM
[14]; Homo sapiens, SN12C, five-dose, read-out: LC50 (the source's name)
  CC50: 55.2 µM
[14]; Homo sapiens, 10 μM single dose, SN12C (renal cancer), read-out: growth inhibition percent (GI%)
  inhibition at 10 µM: > 100%
[14]; five-dose
  TGI: 29.00 µM
[15]; 10 μM one-dose
  GI%: 91.74%
[15]; Homo sapiens, 10 μM single dose, UO-31 (renal cancer), read-out: growth inhibition percent (GI%)
  inhibition at 10 µM: 91.7%
[16]; 10 μM one-dose
  GI%: 88.74%
[16]; Homo sapiens, PC-3, five-dose
  GI50: 12.5 µM
[16]; Homo sapiens, PC-3, five-dose, read-out: LC50 (the source's name)
  CC50: 61.3 µM
[16]; Homo sapiens, 10 μM single dose, PC-3 (prostate cancer), read-out: growth inhibition percent (GI%)
  inhibition at 10 µM: 88.7%
[16]; five-dose
  TGI: 27.70 µM
[17]; Homo sapiens, DU-145, five-dose
  GI50: 16.8 µM
[17]; Homo sapiens, DU-145, five-dose, read-out: LC50 (the source's name)
  CC50: 58.1 µM
[17]; Homo sapiens, DU-145, read-out: growth inhibition percent (GI%)
  inhibition at 10 µM: > 100%
[17]; five-dose
  TGI: 31.30 µM
[18]; Homo sapiens, Hs-578T, five-dose
  GI50: 15.6 µM
[18]; Homo sapiens, Hs-578T, five-dose, read-out: LC50 (the source's name)
  CC50: 77 µM
[18]; Homo sapiens, 10 μM single dose, HS 578T (breast cancer), read-out: growth inhibition percent (GI%)
  inhibition at 10 µM: > 100%
[18]; five-dose
  TGI: 34.60 µM
[19]; Homo sapiens, BT-549, five-dose
  GI50: 10.7 µM
[19]; Homo sapiens, BT-549, five-dose, read-out: LC50 (the source's name)
  CC50: 49.4 µM
[19]; Homo sapiens, 10 μM single dose, BT-549 (breast cancer), read-out: growth inhibition percent (GI%)
  inhibition at 10 µM: 17.3%
[19]; five-dose
  TGI: 23.00 µM
[20]; Homo sapiens, T47D, 10 μM single dose, T-47D (breast cancer), read-out: growth inhibition percent (GI%)
  inhibition at 10 µM: > 100%
[20]; Homo sapiens, T47D, five-dose
  GI50: 13.8 µM
[20]; Homo sapiens, T47D, five-dose, read-out: LC50 (the source's name)
  CC50: 67.2 µM
[20]; five-dose
  TGI: 30.40 µM
[21]; [23]
  GI50: 12.4 µM
  LC50: 55.3 µM
[21]; Homo sapiens, 10 μM single dose, MDA-MB-468 (breast cancer), read-out: growth inhibition percent (GI%)
  inhibition at 10 µM: > 100%
[21]; five-dose
  TGI: 26.20 µM
